# According to patent publication US20220119794A1, “CHEMICALLY PROGRAMMED NEUTROPHILS AND USES THEREOF” (VIRGINIA POLYTECHNIC INSTITUTE AND STATE UNIVERSITY, priority 2018, published 2022):
# Legend:
# [1] = test system: p-STAT1, ATF4, KLF2 in BM neutrophils; assay: p-STAT1, ATF4 and KLF2 levels in neutrophils by flow cytometry; type: cell-based, C57 BL/6 mice; conditions: LPS 100 pg/ml, vs PBS
# Experimental: (§1) In vitro neutrophil priming and FACS analysis. Bone marrow (BM) neutrophils were isolated from C57 BL/6 mice and cultured in complete RPMI medium containing 10% fetal bovine serum, 2 mM L-glutamine, 1% penicillin/streptomycin in the presence of G-CSF (100 ng/ml). PBS, subclinical dose LPS (100 pg/ml), oxLDL (10 μg/ml) or 4-PBA (1 mM) was added to cell cultures. After 2 days, the cells were harvested and stained with anti-Ly6G (BioLegend, #127606, 127610 or 127618, 1:200 dilution), anti-CD11b (BioLegend, #101206, 1:200 dilution), anti-CD62L (BioLegend, #104407, 1:200 dilution), anti-Dectin1 (BioLegend, #144305, 1:200 dilution), anti-LLRC32 (BioLegend, #142904, 1:200 dilution) and anti-FPN (Novus, #NBP1-21502, 1:200 dilution) antibodies. In some experiments, the cells were fixed and permeabilized using transcription factor phospho buffer set (BD Biosciences), and then stained with primary anti-p-STAT1 (Cell Signaling, #8009S, 1:50 dilution), anti-ATF4 (Proteintech, #10835-1-AP, 1:50 dilution), and anti-KLF2 (Novus, #NBP2-61812, 1:100 dilution) antibodies followed by staining with Alexa Fluor 488 conjugated goat anti-rabbit IgG (Abcam, #ab150077, 1:2000 dilution). Surface phenotype and transcription factor phosphorylation of Ly6G+ neutrophils were analyzed by FACSCanto II (BD Biosciences). For intracellular ROS detection, 5 μM CellROX Green Reagent (ThermoFisher) was added to neutrophil cultures 30 min before harvesting, and cells were analyzed by FACSCanto II (BD Biosciences). The data were processed by Flow Jo (Tree Star).
# [2] = test system: BM neutrophils; assay: Lysosome-peroxisome fusion by confocal microscopy; type: cell-based, C57 BL/6 mice; conditions: LPS 100 pg/ml, 2 d, vs PBS
# Experimental: Confocal Microscopy. Purified BM neutrophils were cultured in complete RPMI medium with G-CSF (100 ng/ml) in the presence of PBS, subclinical dose LPS (100 pg/ml), or 4-PBA (1 mM) for 2 d. To determine lysosome-peroxisome fusion, the cells were fixed with 4% PFA, deposited on slides through cytospin, and permeabilized with 0.2% Trinton X-100. The cells were blocked and stained with primary rabbit anti-mouse PMP70 antibody (1:1000) supplied in SelectFX® Alexa Fluor® 488 Peroxisome Labeling Kit (ThermoFisher, #S34201), followed by staining with Alexa Fluor 488-goat anti-rabbit secondary antibody (1:1000) supplied in the kit. After extensive washing with PBS, the cells were then stained with Cy3-anti-LAMP1 antibody (Abcam, #Ab67283, 1:1000) and observed under a confocal microscope.
# [3] = test system: BM neutrophils; assay: Surface phenotype of neutrophils before transfer, polarization for 24 h; type: cell-based, mice; conditions: polarized for 24 hours, vs PBS
# Experimental: Bone marrow neutrophils were purified and treated with PBS, super-low-dose LPS (100 pg/ml) or 4-PBA (1 mM) for 24 h (FIGS. 16A-16B) and 48 h (FIGS. 16C-16D). The cells were stained with Annexin-V and PI, and the viability (percentage of Annexin-V-/PI-population) was determined by flow cytometry. (FIG. 16E) Surface phenotype of neutrophils was analyzed by flow cytometry after polarization for 24 h. Data are representative of three independent experiments, and error bars represent means±S.E.M. *P<0.05, **P<0.01 and ***P<0.001 as compared with PBS group; one-way ANOVA. (n=5 for each group).
# Adoptive transfer of in vitro neutrophils. Bone marrow (BM) cells were isolated from ApoE−/− mice and BM neutrophils (Ly6G+ population) were purified by FACS sorting with >99.5% purity. The cells were cultured in complete RPMI with G-CSF (100 ng/ml) in the presence of subclinical dose LPS (100 pg/ml) or 4-PBA (1 mM) for 24 h. Cells were washed three times with PBS and suspended in PBS for injection. HFD-fed ApoE−/− mice were transfused with 2×10^6 neutrophils in 200 μl PBS once weekly through intravenous injection for 4 weeks. One week after the last cell transfer, mice were sacrificed and tissues were harvested for subsequent analyses.
# [4] = test system: Bone marrow (BM) neutrophils; assay: In vitro neutrophil priming, surface phenotype by FACS; type: cell-based, C57 BL/6 mice; conditions: LPS 100 pg/ml with G-CSF, vs G-CSF alone
# Experimental: as §1
# [5] = test system: ApoE−/− mice; assay: Subclinical low dose LPS injection in ApoE−/− mice: atherosclerotic lesions, circulating mediators; type: in vivo; conditions: for lesional oxCAMKII levels: low dose LPS vs PBS
# Experimental: (§2) Experimental animals and LPS injection. Male ApoE−/− mice (6 to 8-week old) on the C57 BL/6 background were purchased from the Jackson Laboratory and fed with regular diet or High Fat Diet. Either PBS or subclinical dose LPS (5 ng per kg body weight) was intraperitoneally injected every 3 days for 1 month. Then, the mice were sacrificed and tissues were harvested for further analyses. All animal procedures were in accordance with the US National Institutes of Health Guide for the Care and Use of Laboratory Animals and approved by the Intuitional Animal Care and Use Committee of Virginia Tech.
# Analyses of atherosclerotic lesions. Histological analyses were performed on fresh-frozen and optimal cutting temperature (OCT) compound-embedded proximal aortic sections ([…]). Slides were fixed in 4% neutral buffered formalin for 5 min, followed by H&E or Oil Red O staining. Collagen staining was performed using the Picrosirius Red Stain Kit (Poly-Sciences) according to the manufacturer's instructions. The samples were observed under a light microscope. The percentages of total lesion area, lipid deposition, and collagen composition were calculated. For immunofluorescence staining, proximal aortic sections were fixed with 4% neutral buffered formalin for 5 min, permeabilized with 0.1% saponins, and blocked with 10% normal goat serum (Jackson ImmunoResearch) for 1 hour. To detect lesional neutrophils, the samples were stained with Alexa Fluor 647-conjugated anti-Ly6G antibody (1:50 dilution; BioLegend, no. 127610). To detect lesional macrophages, the samples were costained with eFluor 660-conjugated anti-CD68 (1:100 dilution; Thermo Fisher Scientific, no. 50-0681-82) and rabbit anti-SR-A (1:100 dilution; Thermo Fisher Scientific, no. PA5-22956) antibodies, followed by staining with DyLight 488-conjugated goat anti-rabbit immunoglobulin G (IgG) (1:100 dilution; Thermo Fisher Scientific, no. 35552) in the dark at room tem-perature for 1 hour. To detect oxCAMKII levels, the samples were stained with rabbit anti-oxCaMKII antibody (1:100 dilution; Millipore, no. 07-1387) at 4° C. overnight and then with DyLight 488-conjugated goat anti-rabbit IgG (1:100 dilution; Thermo Fisher Scientific, no. 35552) in the dark at room temperature for 1 hour. 4′,6-Diamidino-2-phenylindole was used to stain nucleus. The samples were observed under a confocal microscope.
# (§3) ELISA and determination of plasma lipids. For in vivo analyses, plasma was collected from the mice at time of sacrificing. For in vitro analyses, purified BM neutrophils were cultured in complete RPMI medium with G-CSF (100 ng/ml) in the presence of PBS, subclinical dose LPS (100 pg/ml), oxLDL (10 μg/ml) or 4-PBA (1 mM), and supernatant was collected after 2 d. ELISA kit of MPO was purchased from ThermoFisher, and ELISA kits of MMP9, LTB4 and TGF-β1 were purchased from R&D Systems. Cholesterol quantitation kit was purchased from Sigma-Aldrich, and triglyceride quantification kit was purchased from BioVision.
# [6] = test system: mice; conditions: mice repeatedly injected with 1.5 mg/kg LPS; cited from earlier work
# [7] = test system: BM neutrophils; assay: Intracellular ROS detection with CellROX; type: cell-based, C57 BL/6 mice; conditions: LPS 100 pg/ml, vs PBS
# Experimental: as §1, with “In some experiments, the cells were fixed and permeabilized using transcription factor phospho buffer set (BD Biosciences), and then stained with primary anti-p-STAT1 (Cell Signaling, #8009S, 1:50 dilution), anti-ATF4 (Proteintech, #10835-1-AP, 1:50 dilution), and anti-KLF2 (Novus, #NBP2-61812, 1:100 dilution) antibodies followed by staining with Alexa Fluor 488 conjugated goat anti-rabbit IgG (Abcam, #ab150077, 1:2000 dilution).” left out, “The data were processed by Flow Jo (Tree Star).” left out
# [8] = test system: Ly6G+ neutrophils; assay: Analyses of neutrophil phenotype in vivo by flow cytometry; parameters: species or system mice
# Experimental: as §2
# Analyses of neutrophil phenotype in vivo. Peripheral blood cells, bone marrow (BM) cells and splenocytes were harvested from the mice treated as described above. Cells were stained with anti-Ly6G (BioLegend, #127618, 1:200 dilution), anti-CD11b (BioLegend, #101206, 1:200 dilution), anti-CD62L (BioLegend, #104407, 1:200 dilution), anti-Dectin1 (BioLegend, #144305, 1:200 dilution), anti-LLRC32 (BioLegend, #142904, 1:200 dilution) and anti-FPN (Novus, #NBP1-21502, 1:200 dilution) antibodies. The surface phenotype of Ly6G+ neutrophils was analyzed by FACSCanto II (BD Biosciences). The data were processed by Flow Jo (Tree Star).
# [9] = test system: BM neutrophils; assay: Real-time RT-PCR of miR-24 and miR-126 in neutrophil cultures; type: cell-based, C57 BL/6 mice; conditions: LPS 100 pg/ml, 2 d, vs PBS
# Experimental: Real-Time RT-PCR for detecting of miRNAs. For in vivo analyses, plasma was collected from the mice at time of sacrificing. Circulating miRNAs were isolated with miRNeasy Serum/Plasma kit (Qiagen). For in vitro analyses, purified BM neutrophils were cultured in complete RPMI medium with G-CSF (100 ng/ml) in the presence of PBS, subclinical dose LPS (100 pg/ml), or 4-PBA (1 mM), and miRNAs were isolated with miRNeasy mini kit (Qiagen) after 2 d. TaqMan miRNA Assay kits for detection of U6, miR-16, miR-24, and miR-126 were purchased from ThermoFisher. Real-time RT-PCR was performed following the manual. U6 expression was used as the internal control for miRNA expressions in neutrophil cultures, and miR-16 expression was used as the internal control for plasma miRNA expressions.
# [10] = test system: oxCaMKII and 5-LOX in BM neutrophils; assay: Immunoblotting of oxCaMKII and 5-LOX in neutrophils; type: cell-based, C57 BL/6 mice; conditions: LPS 100 pg/ml, vs PBS
# Experimental: Immunoblotting. Purified BM neutrophils were cultured in complete RPMI medium with G-CSF (100 ng/ml) in the presence of PBS, subclinical dose LPS (100 pg/ml), oxLDL (10 μg/ml) or 4-PBA (1 mM), and total cell lysate was extracted on day 2. Protein samples were separated with SDS-PAGE and transferred to PVDF membranes, which were probed with anti-oxCaMKII (Millipore, #07-1387, 1:500 dilution), anti-5 LOX (Cell Signaling, #3289S, 1:500 dilution), and anti-β-actin (Santa Cruz, #sc-47778, 1:1000 dilution) primary antibodies followed by horseradish peroxidase-conjugated anti-rabbit IgG (Cell Signaling, #7074S, 1:1000 dilution) or anti-mouse IgG (Cell Signaling, #7076S, 1:1000 dilution) secondary antibodies. Images were developed by a chemiluminescence ECL detection kit (ThermoFisher).
# [11] = test system: BM neutrophils; assay: ELISA of MMP9, LTB4, MPO in neutrophil culture supernatant; type: cell-based, C57 BL/6 mice; conditions: LPS 100 pg/ml with G-CSF, vs G-CSF alone
# Experimental: as §3
# [12] = HFD-fed ApoE−/− mice, LPS 5 ng/kg body weight for 4 weeks, vs PBS
# [13] = LPS-injected vs PBS-injected mice
# [14] = LPS-injected vs PBS-injected mice, blood, spleen, bone marrow
substance,measurement,setting,value
lipopolysaccharide [LPS],cellular level of ATF4,[1],significantly reduced
same,cellular level of KLF2,[1],significantly reduced
same,p-STAT1 level,[1],significantly elevated levels
same,fusion between peroxisome and lysosome,[2],disruption of proper fusion
same,CD11b expression,[3],elevated expressions
same,CD62L expression,[3],reduced expressions
same,Dectin-1 expression,[3],elevated expressions
same,FPN expression,[3],reduced expressions
same,LRRC32 expression,[3],reduced expressions
same,surface CD11b,[4],Significantly elevated levels
same,surface CD62L,[4],significantly reduced levels
same,surface Dectin-1,[4],Significantly elevated levels
same,surface FPN,[4],significantly reduced levels
same,surface LRRC32,[4],significantly reduced levels
same,atherosclerotic plaque size,[5]; [12],significantly larger
same,circulating MPO,[5]; [12],remarkable elevation
same,circulating levels of TGFβ,[5]; [12],significantly reduced
same,collagen content within the plaque,[5]; [12],significantly reduced
same,plasma LTB4 level,[5]; [12],significant elevation
same,plasma MMP9 level,[5]; [12],significant elevation
same,lesional oxCAMKII levels,[5]; HFD-fed ApoE−/− mice,significantly elevated
same,lesional oxCAMKII levels,[5]; RD-fed ApoE−/− mice,significantly elevated
same,necrotic cores,[6],enlarged
same,numbers of circulating neutrophils,[6],elevated numbers
same,plaque collagen content,[6],reduced
same,intracellular ROS level,[7],significantly higher levels
same,neutrophil surface level of FPN,[8]; [13],significantly reduced
same,neutrophil surface level of LRRC32,[8]; [13],significantly reduced
same,neutrophil surface CD11b,[8]; [14],significantly elevated
same,neutrophil surface Dectin1,[8]; [14],significantly elevated
same,neutrophil surface-attached CD62L,[8]; [14],significant reduction
same,"percentages of neutrophils in blood, spleens and atherosclerotic plaques",[8]; mice chronically injected with LPS vs PBS,higher percentages
same,miR-24 expression,[9],induced
same,miR-126 expression,[9],potently suppressed
same,5-LOX level,[10],increased levels
same,oxCAMKII level,[10],increased levels
same,LTB4 in supernatant,[11],Significantly higher levels
same,MMP9 in supernatant,[11],Significantly higher levels
same,MPO in supernatant,[11],Significantly higher levels
